Experimental data from patent US11331338B2, “Hydrogen sulfide releasing polymer compounds” (CROMA-PHARMA GESELLSCHAFT M.B.H., priority 2016, dated 2022).

What was measured:
[1] = test system: immortalized human microvascular endothelial cells (HMEC-1); assay: Cell compatibility / proliferation (WST-1); format: cell-based; conditions: HMEC-1 compared with the other cell types
Description: In order to study cell compatibility, especially the effect of proliferation, the H2S releasing hyaluronic acid derivative according to FIG. 1A (s. above,) was investigated in comparison with unmodified HA (sodium salt of hyaluronic acid, “NA HA”) and an […] thiolated hyaluronic acid (“Thiomer CAPPY”). As further control, the well established commercially available H2S donor N-(benzoylthio)benzamide (Donor 5a is NSHD1, a small molecule with a thiol activation mechanism) was included in the experiments.
Three types of skin cells were used as models: primary human dermal fibroblasts (dFb), the immortalized line of human microvascular endothelial cells (HMEC-1) and the keratinocyte cell line HaCat. The cells were cultured in their appropriate medium. Synthetic medium Fibrolife with supplements and gentamycin was used for dFb, EBM+supplements was used for HMEC-1 and DMEM with 10% FCS and 1% CellShield was used for HaCat cells. Furthermore, 3 mM cysteine was added to all conditions investigated. […] Cells were seeded and grown at least overnight before medium was changed and the HA components were added according to the agreed protocol. […] Cell proliferation was measured indicated by using a WST-1-based colorimetric detection reagent according to manufacturers' protocol with fresh medium without addition of any HA-derivative. […]

[2] = Detection of released H2S by embrowning Pb-acetate paper after thiol addition; conditions: excess amounts of L-cysteine or cysteamine
Method: 850 mg polymer was obtained as a white, fibrous product with an estimated molecular weight of 270 kDa (based on the starting material) and a degree of modification with H2S releasing perthiol structures of […] polymer. This corresponds to a conversion rate of 98% of the thiol moieties of the polymer used as starting material. […] Emerging H2S was detected by embrowning Pb-acetate paper.
This finding was later confirmed by detecting H2S release after addition of excess amounts of L-cysteine or cysteamine to 4-amino-N-(benzoylthio)benzamide via embrowning Pb-acetate paper.

[3] = Olfactory test for H2S liberation; conditions: dissolved in acetone/phosphate buffer, excess L-cysteine

## O=C(NSC(=O)c1ccccc1)c1ccccc1 [Donor 5a, N-(benzoylthio)benzamide]
[1]
  sensitivity of endothelial cells to H2S: most sensitive

## Nc1ccc(C(=O)NSC(=O)c2ccccc2)cc1 [4-amino-N-(benzoylthio)benzamide]
[2]
  H2S release detected by Pb-acetate paper: H2S release
[3]
  H2S liberation, olfactory test: indicated H2S liberation
